Data reported in the NIST ThermoML archive (doi:10.1016/j.jct.2010.10.018).

Assay: xn = mol fraction of the nth substance listed
Conditions: 101 kPa, Liquid, Vibrating tube method

CC(C)(C)O [2-methylpropan-2-ol] + O
Conditions | mass density [kg/m3]
298.15 K, x1 = 0.6029 | 813.22
298.15 K, x1 = 0.6909 | 803.57
298.15 K, x1 = 0.726 | 800.1
298.15 K, x1 = 0.7999 | 794.07
298.15 K, x1 = 0.8711 | 788.3
298.15 K, x1 = 0.9183 | 785.07
298.15 K, x1 = 0.9574 | 782.74
298.15 K, x1 = 0.9652 | 782.29
298.15 K, x1 = 0.9795 | 781.56
298.15 K, x1 = 0.9873 | 781.18
298.15 K, x1 = 0.9935 | 780.83
298.15 K, x1 = 0.9963 | 780.69
299.15 K, x1 = 0.9821 | 780.36
299.15 K, x1 = 0.9944 | 779.76
299.15 K, x1 = 0.996 | 779.69
299.15 K, x1 = 1 | 779.48
303.15 K, x1 = 0.9821 | 776.31
303.15 K, x1 = 0.9944 | 775.66
303.15 K, x1 = 0.996 | 775.58
303.15 K, x1 = 1 | 775.39
308.15 K, x1 = 0.00089 | 993.36
308.15 K, x1 = 0.00146 | 992.96
308.15 K, x1 = 0.00269 | 992.08
308.15 K, x1 = 0.00403 | 991.15
308.15 K, x1 = 0.00513 | 990.39
308.15 K, x1 = 0.00761 | 988.7
308.15 K, x1 = 0.01405 | 984.86
308.15 K, x1 = 0.0248 | 978.65
308.15 K, x1 = 0.03494 | 973.48
308.15 K, x1 = 0.04241 | 969.43
308.15 K, x1 = 0.05218 | 963.7
308.15 K, x1 = 0.05887 | 959.67
308.15 K, x1 = 0.06973 | 953.09
308.15 K, x1 = 0.1125 | 928.56
308.15 K, x1 = 0.1566 | 906.33
308.15 K, x1 = 0.208 | 886.22
308.15 K, x1 = 0.2408 | 874.67
308.15 K, x1 = 0.3023 | 856.97
308.15 K, x1 = 0.3451 | 846.68
308.15 K, x1 = 0.4045 | 834.17
308.15 K, x1 = 0.4225 | 830.99
308.15 K, x1 = 0.4653 | 823.8
308.15 K, x1 = 0.5344 | 812.83
308.15 K, x1 = 0.6029 | 803.86
308.15 K, x1 = 0.6909 | 794.03
308.15 K, x1 = 0.726 | 790.54
308.15 K, x1 = 0.7999 | 784.37
308.15 K, x1 = 0.8711 | 778.45
308.15 K, x1 = 0.9183 | 775.09
308.15 K, x1 = 0.9574 | 772.63
308.15 K, x1 = 0.9652 | 772.13
308.15 K, x1 = 0.9795 | 771.34
308.15 K, x1 = 0.9821 | 771.14
308.15 K, x1 = 0.9944 | 770.47
308.15 K, x1 = 0.996 | 770.38
308.15 K, x1 = 1 | 770.14
313.15 K, x1 = 0.9821 | 765.88
313.15 K, x1 = 0.9944 | 765.18
313.15 K, x1 = 0.996 | 765.09
313.15 K, x1 = 1 | 764.84
318.15 K, x1 = 0.9821 | 760.53
318.15 K, x1 = 0.9944 | 759.8
318.15 K, x1 = 0.996 | 759.71
318.15 K, x1 = 1 | 759.46
323.15 K, x1 = 0.00089 | 987.36
323.15 K, x1 = 0.00146 | 986.95
323.15 K, x1 = 0.00269 | 986.1
323.15 K, x1 = 0.00403 | 985.16
323.15 K, x1 = 0.00513 | 984.39
323.15 K, x1 = 0.00761 | 982.75
323.15 K, x1 = 0.01405 | 978.38
323.15 K, x1 = 0.0248 | 971.52
323.15 K, x1 = 0.03494 | 965.43
323.15 K, x1 = 0.04241 | 960.77
323.15 K, x1 = 0.05218 | 954.06
323.15 K, x1 = 0.05887 | 949.57
323.15 K, x1 = 0.06973 | 942.66
323.15 K, x1 = 0.1125 | 916.92
323.15 K, x1 = 0.1566 | 893.97
323.15 K, x1 = 0.208 | 873.34
323.15 K, x1 = 0.2408 | 861.46
323.15 K, x1 = 0.3023 | 843.45
323.15 K, x1 = 0.3451 | 832.95
323.15 K, x1 = 0.4045 | 820.18
323.15 K, x1 = 0.4225 | 816.91
323.15 K, x1 = 0.4653 | 809.6
323.15 K, x1 = 0.5344 | 798.37
323.15 K, x1 = 0.6029 | 789.18
323.15 K, x1 = 0.6909 | 779.13
323.15 K, x1 = 0.726 | 775.51
323.15 K, x1 = 0.7999 | 769.18
323.15 K, x1 = 0.8711 | 763
323.15 K, x1 = 0.9183 | 759.52
323.15 K, x1 = 0.9574 | 756.76
323.15 K, x1 = 0.9652 | 756.21
323.15 K, x1 = 0.9795 | 755.31
323.15 K, x1 = 0.9821 | 755.09
323.15 K, x1 = 0.9944 | 754.31
323.15 K, x1 = 0.996 | 754.22
323.15 K, x1 = 1 | 753.94
333.15 K, x1 = 0.00089 | 982.51
333.15 K, x1 = 0.00146 | 982.1
333.15 K, x1 = 0.00269 | 981.23
333.15 K, x1 = 0.00403 | 980.3
333.15 K, x1 = 0.00513 | 979.52
333.15 K, x1 = 0.00761 | 977.87
333.15 K, x1 = 0.01405 | 973.36
333.15 K, x1 = 0.0248 | 965.88
333.15 K, x1 = 0.03494 | 959.46
333.15 K, x1 = 0.04241 | 954.72
333.15 K, x1 = 0.05218 | 947.17
333.15 K, x1 = 0.05887 | 942.74
333.15 K, x1 = 0.06973 | 935.49
333.15 K, x1 = 0.1125 | 908.96
333.15 K, x1 = 0.1566 | 885.44
333.15 K, x1 = 0.208 | 864.42
333.15 K, x1 = 0.2408 | 852.37
333.15 K, x1 = 0.3023 | 834.38
333.15 K, x1 = 0.3451 | 823.51
333.15 K, x1 = 0.4045 | 810.41
333.15 K, x1 = 0.4225 | 807.23
333.15 K, x1 = 0.4653 | 799.78
333.15 K, x1 = 0.5344 | 788.31
333.15 K, x1 = 0.6029 | 778.96
333.15 K, x1 = 0.6909 | 768.71
333.15 K, x1 = 0.726 | 765.01
333.15 K, x1 = 0.7999 | 758.52
333.15 K, x1 = 0.8711 | 752.17
333.15 K, x1 = 0.9183 | 748.6
333.15 K, x1 = 0.9574 | 745.7
333.15 K, x1 = 0.9652 | 745.12
333.15 K, x1 = 0.9795 | 744.15
333.15 K, x1 = 0.9821 | 743.92
333.15 K, x1 = 0.9944 | 743.11
333.15 K, x1 = 0.996 | 743.02
333.15 K, x1 = 1 | 742.7
348.15 K, x1 = 0.00089 | 974.22
348.15 K, x1 = 0.00146 | 973.75
348.15 K, x1 = 0.00269 | 973.04
348.15 K, x1 = 0.00403 | 972.25
348.15 K, x1 = 0.00513 | 971.5
348.15 K, x1 = 0.00761 | 969.81
348.15 K, x1 = 0.01405 | 965
348.15 K, x1 = 0.0248 | 957.02
348.15 K, x1 = 0.03494 | 949.37
348.15 K, x1 = 0.04241 | 944.24
348.15 K, x1 = 0.05218 | 936.2
348.15 K, x1 = 0.05887 | 931.84
348.15 K, x1 = 0.06973 | 924.4
348.15 K, x1 = 0.1125 | 896.84
348.15 K, x1 = 0.1566 | 872.83
348.15 K, x1 = 0.208 | 850.42
348.15 K, x1 = 0.2408 | 838.25
348.15 K, x1 = 0.3023 | 820.05
348.15 K, x1 = 0.3451 | 808.66
348.15 K, x1 = 0.4045 | 795.17
348.15 K, x1 = 0.4225 | 792.36
348.15 K, x1 = 0.4653 | 784.18
348.15 K, x1 = 0.5344 | 772.8
348.15 K, x1 = 0.6029 | 763.18
348.15 K, x1 = 0.6909 | 752.22
348.15 K, x1 = 0.726 | 748.55
348.15 K, x1 = 0.7999 | 741.72
348.15 K, x1 = 0.8711 | 734.96
348.15 K, x1 = 0.9183 | 731.4
348.15 K, x1 = 0.9574 | 728.29
348.15 K, x1 = 0.9652 | 727.67
348.15 K, x1 = 0.9795 | 726.63
348.15 K, x1 = 0.9821 | 726.41
348.15 K, x1 = 0.9944 | 725.51
348.15 K, x1 = 0.996 | 725.4
348.15 K, x1 = 1 | 725.05
